Our source for the Activity, IC50 and inhibition in vivo values is ChEMBL document CHEMBL4342507, “Targeting YAP Degradation by a Novel 1,2,4-Oxadiazole Derivative via Restoration of the Function of the Hippo Pathway” (ACS Med Chem Lett, 2020).

The test system of data set [1] is SUM-159-PT. The data set can be described thus: Cytotoxicity against human SUM159 cells assessed as reduction in cell viability measured after 72 hrs by MTT assay. The data set is classed as functional, cell-based.
Data set [2] has as its target T1, Serine/threonine-protein kinase LATS1 (Homo sapiens) (UniProt O95835).
T1 sequence (whole entry): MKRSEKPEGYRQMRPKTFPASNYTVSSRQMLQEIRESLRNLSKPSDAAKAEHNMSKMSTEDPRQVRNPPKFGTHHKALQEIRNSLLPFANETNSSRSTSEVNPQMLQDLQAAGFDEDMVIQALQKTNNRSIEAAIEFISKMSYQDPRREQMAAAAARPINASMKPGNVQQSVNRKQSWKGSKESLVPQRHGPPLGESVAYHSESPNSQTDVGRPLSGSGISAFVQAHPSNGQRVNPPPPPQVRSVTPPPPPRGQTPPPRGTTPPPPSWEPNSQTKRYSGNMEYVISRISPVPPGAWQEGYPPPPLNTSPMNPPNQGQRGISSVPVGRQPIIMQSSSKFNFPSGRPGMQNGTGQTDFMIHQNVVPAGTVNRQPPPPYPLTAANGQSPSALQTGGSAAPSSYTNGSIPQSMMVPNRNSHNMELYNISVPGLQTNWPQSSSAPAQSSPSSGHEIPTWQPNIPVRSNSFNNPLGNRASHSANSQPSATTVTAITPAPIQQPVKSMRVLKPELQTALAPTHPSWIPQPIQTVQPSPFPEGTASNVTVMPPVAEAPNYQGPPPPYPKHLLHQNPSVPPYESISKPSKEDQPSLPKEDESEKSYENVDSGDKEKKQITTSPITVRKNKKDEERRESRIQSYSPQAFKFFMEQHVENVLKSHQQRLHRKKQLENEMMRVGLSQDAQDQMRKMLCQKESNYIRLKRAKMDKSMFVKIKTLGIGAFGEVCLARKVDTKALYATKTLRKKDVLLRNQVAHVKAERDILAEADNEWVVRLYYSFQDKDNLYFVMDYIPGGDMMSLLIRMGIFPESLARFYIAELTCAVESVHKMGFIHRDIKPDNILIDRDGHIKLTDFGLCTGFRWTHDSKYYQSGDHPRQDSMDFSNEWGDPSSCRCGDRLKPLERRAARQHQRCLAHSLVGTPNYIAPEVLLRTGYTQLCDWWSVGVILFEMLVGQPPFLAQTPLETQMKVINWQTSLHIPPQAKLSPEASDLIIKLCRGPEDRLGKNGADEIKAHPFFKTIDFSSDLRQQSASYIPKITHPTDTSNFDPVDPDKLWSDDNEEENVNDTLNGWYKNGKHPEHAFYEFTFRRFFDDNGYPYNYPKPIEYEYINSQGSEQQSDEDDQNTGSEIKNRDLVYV
The data set can be described thus: Activation of LATS1 in triple-negative human SUM159 cells assessed as induction of YAP degradation by measuring suppression of YAP protein expression at 0.25 to 1 uM measured after 12 hrs in presence of 10 uM proteosomal inhibitor, MG132 by Western blot analysis.

In data set [3] the test system is MDA-MB-231. Nature of the data set: Cytotoxicity against human MDA-MB-231 cells assessed as reduction in cell viability measured after 72 hrs by MTT assay. Format: functional, cell-based.
The target in data set [4] is T1, Serine/threonine-protein kinase LATS1 (Homo sapiens). Nature of the data set: Activation of LATS1 in human SUM159 cells assessed as increase in YAP phosphorylation at Ser397 at 0.25 to 1.5 uM measured after 12 to 24 hrs by immunoblotting analysis. The data set is classed as cell-based.
Data set [5] has the same target. The data set can be described thus: Activation of LATS1 in human PC9 cells assessed as increase in YAP phosphorylation at Ser397 at 0.25 to 1.5 uM measured after 12 to 24 hrs by immunoblotting analysis. Format: cell-based.
For data set [6] the target is unchanged. Nature of the data set: Activation of LATS1 in human PC9 cells assessed as increase in YAP phosphorylation at Ser397 at 0.25 to 1.5 uM measured after 24 to 48 hrs by immunoblotting analysis. The data set is classed as cell-based.
The target is the same in data set [7]. The data set can be described thus: Activation of LATS1 in human SUM159 cells assessed as increase in phosphorylation at Ser909 residue measured after 12 hrs by Western blot analysis. Format: cell-based.
Data set [8] has the same target. The data set can be described thus: Activation of LATS1 in human PC3 cells assessed as increase in phosphorylation at Thr1079 residue measured after 24 hrs by Western blot analysis. Format: cell-based.
The target of data set [9] is Serine/threonine-protein kinase 3/4 (Homo sapiens) (UniProt Q13043+Q13188). The data set can be described thus: Activation of MST1/2 in human SUM159 cells assessed as effect on phosphorylation at T183/T180 residues at 0.25 to 1.5 uM measured after 12 hrs by Western blot analysis. The data set is classed as cell-based.
Data set [10] concerns SUM-159-PT. The data set can be described thus: Effect on MST2 expression in human SUM159 cells at 0.25 to 1.5 uM measured after 12 hrs by Western blot analysis. The data set is classed as functional, cell-based.
In data set [11] the test system is MDA-MB-231. Nature of the data set: Effect on MST1 expression in human MDA-MB-231 cells at 0.25 to 1.5 uM measured after 24 hrs by Western blot analysis. Format: functional, cell-based.
Data set [12] has as its system MDA-MB-231. The data set can be described thus: Activation of MOB in human MDA-MB-231 cells assessed as phosphorylation at Thr35 residue at 0.25 to 1.25 uM measured after 24 hrs by Western blot analysis. Format: cell-based.
The subject of data set [13] is MDA-MB-231. The data set can be described thus: Antitumor activity against human MDA-MB-231 cells xenografted in athymic Nude-Foxn1nu BALB/c mouse assessed as tumor growth suppression at 200 mg/kg, po administered once daily via gavage for 40 days and measured twice a week during treatment period by caliper method relative to control. Format: functional. To be noted: MDA-MB-231, po, 960 h.

The nature of data set [14]: Acute toxicity in athymic Nude-Foxn1nu BALB/c mouse xenografted with human MDA-MB-231 cells assessed as effect on body weight at 200 mg/kg, po administered once daily via gavage for 40 days and measured twice a week during treatment period. The data set is classed as organism-based. To be noted: in vivo, 960 h.
A short description of data set [15]: Acute toxicity in athymic Nude-Foxn1nu BALB/c mouse xenografted with human MDA-MB-231 cells assessed as effect on serum albumin level at 200 mg/kg, po administered once daily via gavage for 14 days. To be noted: in vivo, 336 h. The data set is classed as organism-based.
A short description of data set [16]: Acute toxicity in athymic Nude-Foxn1nu BALB/c mouse xenografted with human MDA-MB-231 cells assessed as effect on serum total cholesterol level level at 200 mg/kg, po administered once daily via gavage for 14 days. The data set is classed as organism-based. To be noted: in vivo, 336 h.
Data set [17] deals with MDA-MB-231. Nature of the data set: Cytostatic activity against human MDA-MB-231 cells assessed as cell viability at concentration of greater than IC50 measured up to 72 hrs by MTT assay. Format: functional, cell-based.
Data set [18] addresses T1, Serine/threonine-protein kinase LATS1 (Homo sapiens). The data set can be described thus: Activation of LATS1 in human SUM159 cells assessed as induction of YAP degradation by measuring suppression of YAP protein expression at 0.25 to 1.5 uM measured after 12 to 24 hrs by immunoblotting analysis. The data set is classed as cell-based.
The target is the same in data set [19]. Nature of the data set: Activation of LATS1 in human PC3 cells assessed as induction of YAP degradation by measuring suppression of YAP protein expression at 0.25 to 1.5 uM measured after 12 to 24 hrs by immunoblotting analysis. The data set is classed as cell-based.
In data set [20] the test system is MDA-MB-231. Nature of the data set: Effect on MOB expression in human MDA-MB-231 cells at 0.25 to 1.5 uM measured after 24 hrs by Western blot analysis. Format: functional, cell-based.

Molecules are shown by their SMILES. Calls of active or inactive are those of the source. The calls are words filed in the database; no cut-off is given here.

Chain of Serine/threonine-protein kinase 3/4 (Homo sapiens) (Q13043 whole entry, looked up): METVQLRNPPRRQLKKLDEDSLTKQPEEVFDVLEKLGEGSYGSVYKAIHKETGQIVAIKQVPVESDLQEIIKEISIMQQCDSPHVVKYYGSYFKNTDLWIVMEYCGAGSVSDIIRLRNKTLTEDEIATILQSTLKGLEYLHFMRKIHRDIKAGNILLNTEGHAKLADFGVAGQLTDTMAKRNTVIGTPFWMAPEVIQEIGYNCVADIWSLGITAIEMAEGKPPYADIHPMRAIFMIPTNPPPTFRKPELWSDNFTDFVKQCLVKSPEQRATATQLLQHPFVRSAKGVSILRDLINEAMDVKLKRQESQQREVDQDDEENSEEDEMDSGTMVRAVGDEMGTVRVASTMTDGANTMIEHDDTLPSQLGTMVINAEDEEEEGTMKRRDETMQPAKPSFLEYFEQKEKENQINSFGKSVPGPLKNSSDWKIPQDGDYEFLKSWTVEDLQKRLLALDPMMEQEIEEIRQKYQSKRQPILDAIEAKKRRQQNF
Chain of Serine/threonine-protein kinase 3/4 (Homo sapiens) (Q13188 whole entry, looked up): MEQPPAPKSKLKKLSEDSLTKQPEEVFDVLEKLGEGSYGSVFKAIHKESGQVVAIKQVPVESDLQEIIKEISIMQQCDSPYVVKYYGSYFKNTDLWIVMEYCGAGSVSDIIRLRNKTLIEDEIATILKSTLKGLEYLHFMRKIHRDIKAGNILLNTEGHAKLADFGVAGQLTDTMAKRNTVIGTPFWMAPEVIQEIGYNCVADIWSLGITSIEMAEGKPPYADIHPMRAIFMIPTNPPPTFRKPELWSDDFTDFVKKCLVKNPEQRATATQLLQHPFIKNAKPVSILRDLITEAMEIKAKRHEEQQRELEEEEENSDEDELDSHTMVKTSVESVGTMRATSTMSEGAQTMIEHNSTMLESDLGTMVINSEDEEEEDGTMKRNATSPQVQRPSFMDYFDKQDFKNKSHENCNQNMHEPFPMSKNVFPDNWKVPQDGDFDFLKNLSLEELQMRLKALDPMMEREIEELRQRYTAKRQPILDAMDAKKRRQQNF

Regarding `CC(=O)Nc1ccc(NC(=O)Nc2cccc(-c3nc(-c4ccc(NC(=O)c5cccnc5)cc4Cl)no3)c2)cc1C(F)(F)F`, the Activity entry in [1] was “Dose-dependent effect”; in data set [3] it was “Dose-dependent effect”; in data set [7], “Dose-dependent effect”; in data set [8] it was “Dose-dependent effect”; in data set [14] it was “Non-Toxic”; in [15] it was “Non-Toxic”. Besides, the Activity result in data set [16] was “Non-Toxic”. Besides, the IC50 is 400 to 800 nM in data set [1] and 400 to 800 nM in [3] (MDA-MB-231, 72 h). Further, the result in data set [2], in data set [6], in data set [9], in data set [10], in data set [11] and in data set [20] was inactive. For the same compound, the result in [4], in [5], in [12], in [17], in data set [18] and in data set [19] was Active. Moreover, the inhibition in vivo at 200 mg/kg in data set [13] is 65%.
